21 compounds from US10898481B2 (priority 2018, dated 2021) can be followed below.

Broadly, the IC50 is the point on the concentration scale where inhibition reaches its midpoint.

SMILES strings stand for the structures.

One assay has as its target hA2b/CHO (Homo sapiens (Human), UniProt P29275). Nature of the assay: cAMP inhibition assay in hA2b/CHO cells, 10 μM adenosine.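 Note: cells exposed to compound 30 min at 37 °C, then stimulated with adenosine a further 30 min, cAMP read after 60 min at room temperature.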 Type of assay: cell-based. As to conditions: read-out: cAMP & FLIPR IC50 (nM) hA2b.
Assay [1] addresses hADORA1/CHO (hA1 expressing) cells (Homo sapiens (Human), UniProt P30542). The assay is described as follows: cell-based. As to conditions: FLIPR inhibition, 10 μM adenosine, read-out: cAMP & FLIPR IC50 (nM) hA1.
The next assay concerns the target hA2a/CHO (Homo sapiens (Human), UniProt P29274). The assay is described as follows: cAMP inhibition assay in hA2a/CHO cells, 10 μM adenosine.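 Note: compounds added to cells 30 min ahead of adenosine, then a further 30 min at 37 °C with adenosine before cAMP detection.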 In kind it is cell-based. To be noted: read-out: cAMP & FLIPR IC50 (nM) hA2a.
In another assay the target is mA2a/CHO (Mus musculus (Mouse), UniProt Q60613). The assay is described as follows: cAMP inhibition assay in mA2a/CHO cells, 10 μM adenosine.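 Note: compounds preincubated 30 min at 37 °C before the adenosine challenge, then 30 min further stimulation, readout after 60 min detection reagent incubation at room temperature in 384-well plates.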 In kind it is cell-based. To be noted: read-out: cAMP & FLIPR IC50 (nM) mA2a.
Chain of mA2a/CHO (Q60613 whole entry): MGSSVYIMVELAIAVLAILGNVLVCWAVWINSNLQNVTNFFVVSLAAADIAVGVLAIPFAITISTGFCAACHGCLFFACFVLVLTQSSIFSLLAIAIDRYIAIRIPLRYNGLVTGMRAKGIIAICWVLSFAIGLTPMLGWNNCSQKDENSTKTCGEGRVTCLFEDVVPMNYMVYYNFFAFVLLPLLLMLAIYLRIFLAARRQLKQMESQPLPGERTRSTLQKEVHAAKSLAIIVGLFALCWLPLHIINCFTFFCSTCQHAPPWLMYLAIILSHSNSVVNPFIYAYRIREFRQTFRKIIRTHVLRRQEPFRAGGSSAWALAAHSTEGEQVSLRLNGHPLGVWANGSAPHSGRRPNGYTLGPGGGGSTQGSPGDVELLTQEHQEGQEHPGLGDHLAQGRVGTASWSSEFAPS

Chain of hA2a/CHO (P29274 whole entry): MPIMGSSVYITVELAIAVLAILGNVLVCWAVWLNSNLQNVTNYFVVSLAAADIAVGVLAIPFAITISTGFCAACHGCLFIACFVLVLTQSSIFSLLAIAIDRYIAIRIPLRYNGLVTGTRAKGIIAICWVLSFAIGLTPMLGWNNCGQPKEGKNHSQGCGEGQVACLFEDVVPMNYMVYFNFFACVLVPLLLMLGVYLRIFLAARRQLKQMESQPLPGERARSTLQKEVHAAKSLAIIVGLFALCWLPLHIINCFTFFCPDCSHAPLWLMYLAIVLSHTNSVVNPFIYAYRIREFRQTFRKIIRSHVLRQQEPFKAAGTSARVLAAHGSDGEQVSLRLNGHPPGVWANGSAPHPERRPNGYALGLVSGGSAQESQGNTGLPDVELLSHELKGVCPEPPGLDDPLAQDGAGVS
Chain of hADORA1/CHO (hA1 expressing) cells (P30542 whole entry): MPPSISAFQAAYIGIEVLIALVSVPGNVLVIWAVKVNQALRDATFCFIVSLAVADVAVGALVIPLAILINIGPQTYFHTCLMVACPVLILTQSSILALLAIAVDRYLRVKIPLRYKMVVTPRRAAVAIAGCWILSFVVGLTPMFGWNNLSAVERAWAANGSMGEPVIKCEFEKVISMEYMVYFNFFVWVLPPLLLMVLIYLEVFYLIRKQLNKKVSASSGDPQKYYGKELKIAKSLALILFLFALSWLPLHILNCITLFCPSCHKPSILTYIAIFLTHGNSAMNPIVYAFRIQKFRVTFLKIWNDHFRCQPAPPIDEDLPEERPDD
Chain of hA2b/CHO (P29275 whole entry): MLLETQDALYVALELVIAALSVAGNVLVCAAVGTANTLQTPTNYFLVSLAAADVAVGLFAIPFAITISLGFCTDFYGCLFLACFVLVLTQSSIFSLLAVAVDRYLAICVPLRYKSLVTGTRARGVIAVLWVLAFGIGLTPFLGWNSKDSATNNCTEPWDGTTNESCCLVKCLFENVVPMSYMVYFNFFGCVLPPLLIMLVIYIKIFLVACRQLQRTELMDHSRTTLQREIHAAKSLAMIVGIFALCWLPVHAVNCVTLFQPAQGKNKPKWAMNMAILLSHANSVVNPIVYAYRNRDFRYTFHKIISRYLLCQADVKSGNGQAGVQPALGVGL
Protocol for hA2a/CHO: (§1) hA2a/CHO, hA2b/CHO, hA3/CHO and mA2a/CHO (Genscript) were plated at 5×10^3 cells/well into 384-well polystyrene plates at the day of experiment. Compounds were pre-incubated with cells for 30 min at 37° C., 5% CO2. Then 10 μM adenosine was added to the cells and incubated for 30 min at 37° C., 5% CO2. Detection reagent (CISBIO) was added and the plates were incubated for 60 min at room temperature. The signal was captured by Envision.
Protocol for hA2b/CHO: as §1
Protocol for mA2a/CHO: as §1

Regarding `COC(C)CNC(=O)c1nc(-c2ccc3ncc(C)n3c2)c(-c2ncco2)nc1N` (single isomer, unassigned; isomer 2) [Example 241, 3-amino-N-(2-methoxypropyl)-6-(3-methylimidazo[1,2-a]pyridin-6-yl)-5-(oxazol-2-yl)pyrazine-2-carboxamide (isomer 2)], the IC50 is 205 nM at hA2b/CHO, 272 nM in assay [1], 4 nM at hA2a/CHO and 27 nM at mA2a/CHO.
Regarding `Cc1cnc2ccc(-c3nc(C(=O)NCC4(C)CCCN4C)c(N)nc3-c3ncco3)cn12` (single isomer, unassigned; isomer 2) [Example 247, 3-amino-N-((1,2-dimethylpyrrolidin-2-yl)methyl)-6-(3-methylimidazo[1,2-a]pyridin-6-yl)-5-(oxazol-2-yl)pyrazine-2-carboxamide (isomer 2)], the IC50 on hA2b/CHO was 2000 nM; in assay [1], 1490 nM; at hA2a/CHO it was 36 nM; at mA2a/CHO, 345 nM.
The corresponding values for `Cc1cnc2ccc(-c3nc(C(=O)NCC4CN(C)CCO4)c(N)nc3-c3ccc(F)cc3)cn12` (single isomer, unassigned; isomer 2) [Example 250, 3-amino-5-(4-fluorophenyl)-6-(3-methylimidazo[1,2-a]pyridin-6-yl)-N-((4-methylmorpholin-2-yl)methyl) pyrazine-2-carboxamide (isomer 2)] are 212 nM, 36 nM, 5 nM and 31 nM.
With `Cc1cnc2ccc(-c3nc(C(=O)NCC4(C)CCOC4)c(N)nc3-c3ncco3)cn12` (single isomer, unassigned; isomer 2) [Example 252, 3-amino-6-(3-methylimidazo[1,2-a]pyridin-6-yl)-N-((3-methyltetrahydrofuran-3-yl)methyl)-5-(oxazol-2-yl)pyrazine-2-carboxamide (isomer 2)], the IC50 at hA2b/CHO amounted to 821 nM; in assay [1], 260 nM; on hA2a/CHO it was 2.9 nM; at mA2a/CHO, 30 nM.
Consider `CN1CCCC1CNC(=O)c1nc(-c2ccc3ncc(Cl)n3c2)c(-c2ncco2)nc1N` (stereo in doubt) [Cmpd. 209, 3-amino-6-[3-chloroimidazo[1,2-a]pyridin-6-yl]-N-[[(2S)-1-methylpyrrolidin-2-yl]methyl]-5-(1,3-oxazol-2-yl)pyrazine-2-carboxamide], for which the IC50 on hA2b/CHO is 1260 nM; in assay [1] it was greater than 10000 nM; at hA2a/CHO, 14 nM; on mA2a/CHO, 134 nM.
With `CNCCOc1cccnc1CNC(=O)c1nc(-c2ccc3ncc(C)n3c2)c(-c2ccc(F)cc2)nc1N` [Cmpd. 199, 3-amino-5-(4-fluorophenyl)-N-([3-[2-(methylamino)ethoxy]pyridin-2-yl]methyl)-6-[3-methylimidazo[1,2-a]pyridin-6-yl]pyrazine-2-carboxamide], the IC50 at hA2b/CHO was 102 nM; in assay [1] it was 34 nM; on hA2a/CHO it was 0.7 nM; at mA2a/CHO, 1.6 nM.
On the same counts, the results for `Cc1cnc2ccc(-c3nc(C(=O)NC[C@H]4CCN(C(=O)C5CC5)C4)c(N)nc3-c3ncco3)cn12` [Cmpd. 219, 3-amino-N-[[(3R)-1-cyclopropanecarbonylpyrrolidin-3-yl]methyl]-6-[3-methylimidazo[1,2-a]pyridin-6-yl]-5-(1,3-oxazol-2-yl)pyrazine-2-carboxamide] are 2300 nM, greater than 10000 nM, 4.9 nM and 220 nM.
On the same counts, the results for `Cc1cnc2ccc(-c3nc(C(=O)NC[C@@H]4CCN(C(=O)C5CC5)C4)c(N)nc3-c3ncco3)cn12` [Cmpd. 221, 3-amino-N-[[(3S)-1-cyclopropanecarbonylpyrrolidin-3-yl]methyl]-6-[3-methylimidazo[1,2-a]pyridin-6-yl]-5-(1,3-oxazol-2-yl)pyrazine-2-carboxamide] are 1030 nM, 7540 nM, 1.6 nM and 33 nM.
On the same counts, the results for `Cc1cnc2ccc(-c3nc(C(=O)NCc4cccc(N[C@H]5C[C@@H](N(C)C)C5)n4)c(N)nc3-c3ncco3)cn12` [Cmpd. 224, Cis-3-amino-6-[3-methylimidazo[1,2-a]pyridin-6-yl]-5-(1,3-oxazol-2-yl)-N-[(6-[[3-(di-methylamino)cyclobutyl]amino]pyridin-2-yl)methyl]pyrazine-2-carboxamide] are 245 nM, 7880 nM, 3.2 nM and 27 nM.
Turning to `Cc1cnc2ccc(-c3nc(C(=O)NCc4cccc(N[C@H]5C[C@H](N(C)C)C5)n4)c(N)nc3-c3ncco3)cn12` [Cmpd. 227, Trans-3-amino-6-[3-methyl-imidazo[1,2-a]pyridin-6-yl]-5-(1,3-oxazol-2-yl)-N-[(6-[[3-(dimethylamino)cyclobutyl]amino]pyridin-2-yl)methyl]pyrazine-2-carboxamide], the IC50 on hA2b/CHO came out at 99 nM; in assay [1] it was 781 nM; on hA2a/CHO it was 4.4 nM; on mA2a/CHO it was 24 nM.
The corresponding values for `Cc1cnc2ccc(-c3nc(C(=O)NC[C@H]4CCCO4)c(N)nc3-n3nccn3)cn12` [Cmpd. 229, 3-amino-6-[3-methylimidazo[1,2-a]pyridin-6-yl]-N-[[(2R)-oxolan-2-yl]methyl]-5-(2H-1,2,3-triazol-2-yl)pyrazine-2-carboxamide] are 157 nM, 1650 nM, 2.4 nM and 19 nM.
Consider `Cc1ccc(-c2nc(N)c(C(=O)NCc3c(F)cccc3F)nc2-c2ccc(=O)n(C)c2)o1` [Example 2, 3-amino-N-[(2,6-difluorophenyl)methyl]-6-(1-methyl-6-oxo-1,6-dihydropyridin-3-yl)-5-(5-methylfuran-2-yl)pyrazine-2-carboxamide], for which the IC50 on hA2b/CHO stood at 92 nM; in assay [1] it was 26 nM; on hA2a/CHO, 0.9 nM; on mA2a/CHO, 21 nM.
The corresponding values for `Cc1ccc(-c2nc(N)c(CNC(=O)c3c(F)cccc3F)nc2-c2ccc(=O)n(C)c2)o1` [Example 4, N-((3-amino-6-(1-methyl-6-oxo-1,6-dihydropyridin-3-yl)-5-(5-methylfuran-2-yl)pyrazin-2-yl)methyl)-2,6-difluorobenzamide] are 1220 nM, 18 nM, 15 nM and 43 nM.
The corresponding values for `Cc1cc(-c2nc(C(=O)NCc3c(F)cccc3F)c(N)nc2-c2ncco2)cc(C)n1` [Example 5, 3-amino-N-(2,6-difluorobenzyl)-6-(2,6-dimethylpyridin-4-yl)-5-(oxazol-2-yl)pyrazine-2-carboxamide] are no less than 10000 nM, 10000 nM, 28 nM and 219 nM.
In the case of `CC1CN(c2nc(C(=O)NCc3c(F)cccc3F)c(N)nc2-c2ccc(F)cc2)CC(C)O1` (stereo not drawn) [Example 6, 3-amino-N-(2,6-difluorobenzyl)-6-(2,6-dimethylmorpholino)-5-(4-fluorophenyl)pyrazine-2-carboxamide], the IC50 was no less than 10000 nM on hA2b/CHO, 8840 nM in assay [1], 87 nM at hA2a/CHO and 1060 nM at mA2a/CHO.
As to `Cn1cc(-c2nc(CNC(=O)c3c(F)cccc3C(F)(F)F)c(N)nc2-c2ccc(F)cc2)ccc1=O` [Example 7, N-[[3-amino-5-(4-fluorophenyl)-6-(1-methyl-6-oxo-1,6-dihydropyridin-3-yl)pyrazin-2-yl]methyl]-2-fluoro-6-(trifluoromethyl)benzamide], the IC50 at hA2b/CHO stood at 3860 nM; in assay [1], 98 nM; at hA2a/CHO it was 166 nM; at mA2a/CHO it was 237 nM.
Turning to `Cc1cc(-c2nc(CNC(=O)c3ccccn3)c(N)nc2-c2ccc(F)cc2)cc(C)n1` [Example 8, N-[[3-amino-6-(2,6-dimethylpyridin-4-yl)-5-(4-fluorophenyl)pyrazin-2-yl]methyl]pyridine-2-carboxamide], the IC50 on hA2b/CHO was no less than 10000 nM; in assay [1], 3400 nM; on hA2a/CHO it was 116 nM; at mA2a/CHO it was 390 nM.
On the same counts, the results for `CN(C)c1cccc(CNC(=O)c2nc(-c3ccc(=O)n(C)c3)c(-c3ncco3)nc2N)n1` [Example 15, 3-amino-N-[[6-(dimethylamino)pyridin-2-yl]methyl]-6-(1-methyl-6-oxo-1,6-dihydropyridin-3-yl)-5-(1,3-oxazol-2-yl)pyrazine-2-carboxamide] are no less than 10000 nM, 804 nM, 39 nM and 86 nM.
On the same counts, the results for `COc1cccc(CNC(=O)c2nc(-c3ccc(=O)n(C)c3)c(-c3ncco3)nc2N)n1` [Example 17] are no less than 10000 nM, 951 nM, 117 nM and 132 nM.
The corresponding values for `Cc1cccc(CNC(=O)c2nc(-c3ccc(=O)n(C)c3)c(-c3ncco3)nc2N)n1` [Example 18, 3-amino-6-(1-methyl-6-oxo-1,6-dihydropyridin-3-yl)-N-[(6-methylpyridin-2-yl)methyl]-5-(1,3-oxazol-2-yl)pyrazine-2-carboxamide] are no less than 10000 nM, 1150 nM, 105 nM and 116 nM.
As to `Cn1cc(-c2nc(CNC(=O)c3ncccc3OC(F)F)c(N)nc2-c2ccc(F)cc2)ccc1=O` [Example 21, N-[[3-amino-5-(4-fluorophenyl)-6-(1-methyl-6-oxo-1,6-dihydropyridin-3-yl)pyrazin-2-yl]methyl]-3-(difluoromethoxy)pyridine-2-carboxamide], the IC50 at hA2b/CHO worked out at 638 nM; in assay [1] it was 18 nM; on hA2a/CHO, 98 nM; on mA2a/CHO, 73 nM.
